Data from paper PMC3972730 (Bioorganic & medicinal chemistry letters, 2010).

Tests used:
[1] = Metabolite identification in human liver microsomes with NADPH; assay type: in vitro ADME; conditions: human liver microsomes in the presence of NADPH, LC-MS/MS
[2] = Microsomal stability in human liver microsomes; assay type: in vitro ADME; conditions: parent remaining after 30mins incubation with human liver microsomes

O=C(CCc1cnnn1-c1cccc(Cl)c1)c1ccccc1 [Compound 12e]
metabolites formed [1]: two metabolites were formed with masses equal to (parent+2) and (parent+16)

CC(C)(C)C(=O)CCc1cnnn1-c1ccccc1 [Compound 13h]
HLM % parent [2]: 4%
